According to US6737383B1, “Herbicidal oxadiazolidines” (priority 1999, dated 2004):

Columns and labels:
[1] = test system: bedstraw; test: Test B pre/postemergence bedstraw; type: in vivo, Galium aparine; details: for Bedstraw plant response rating: Postemergence; for Plant response rating, Bedstraw: Preemergence
Method in brief: (§1)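 Response is a visual 0-to-10 score relative to untreated plants, where 0 means no effect and 10 means complete control, taken twelve to sixteen days after application. Treatments went onto soil at planting and onto foliage of 1- to 4-leaf plants, using a surfactant-containing non-phytotoxic solvent.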

[2] = test system: blackgrass; test: Test B pre/postemergence blackgrass; type: in vivo, Alopecurus myosuroides
Method in brief: as §1

[3] = test system: surinam grass; test: Test B pre/postemergence surinam grass; type: in vivo, Brachiaria decumbens
Method in brief: as §1

[4] = test system: cocklebur; test: Test B pre/postemergence cocklebur; type: in vivo, Xanthium strumarium
Method in brief: as §1

[5] = test system: corn; test: Test B pre/postemergence corn; type: in vivo, Zea mays
Method in brief: as §1

[6] = test system: crabgrass; test: Test B pre/postemergence crabgrass; type: in vivo, Digitaria sanguinalis
Method in brief: as §1

[7] = test system: morningglory; test: Test B pre/postemergence morningglory; type: in vivo, Ipomoea hederacea; details: for Plant response rating, Morningglory: scale of 0 to 10 where 0 is no effect and 10 is complete control
Method in brief: as §1

[8] = test system: pigweed; test: Test B pre/postemergence pigweed; type: in vivo, Amaranthus retroflexus; details: for Plant response rating, Redroot pigweed: scale of 0 to 10 where 0 is no effect and 10 is complete control
Method in brief: as §1

[9] = test system: rape; test: Test B pre/postemergence rape; type: in vivo, Brassica napus; details: for Plant response rating, Rape: scale of 0 to 10 where 0 is no effect and 10 is complete control
Method in brief: as §1

[10] = test system: sugar beet; test: Test B pre/postemergence sugar beet; type: in vivo, Beta vulgaris; details: for Plant response rating, Sugarbeets: scale of 0 to 10 where 0 is no effect and 10 is complete control
Method in brief: as §1

[11] = test system: velvetleaf; test: Test B pre/postemergence velvetleaf; type: in vivo, Abutilon theophrasti; details: for Plant response rating, Velvetleaf: scale of 0 to 10 where 0 is no effect and 10 is complete control
Method in brief: as §1

[12] = test system: wheat; test: Test B pre/postemergence wheat; type: in vivo, Triticum aestivum; details: for Plant response rating, Wheat: scale of 0 to 10 where 0 is no effect and 10 is complete control
Method in brief: as §1

[13] = test system: wild oat; test: Test B pre/postemergence wild oat; type: in vivo, Avena fatua; details: for Plant response rating, Wild oats: scale of 0 to 10 where 0 is no effect and 10 is complete control
Method in brief: as §1

[14] = test system: purple nutsedge; test: Test B pre/postemergence purple nutsedge; type: in vivo, Cyperus rotundus; details: for Plant response rating, Nutsedge: scale of 0 to 10 where 0 is no effect and 10 is complete control
Method in brief: as §1

[15] = test system: smallflower flatsedge; test: Test B flood test smallflower flatsedge; type: in vivo, Cyperus difformis
Method in brief: (§2)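 Each value is a visual injury score relative to controls, with 10 meaning complete control and 0 no effect. Evaluation took place twelve to sixteen days after the 2-leaf-stage plants were treated and kept in the greenhouse.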

[16] = test system: duck salad; test: Test B flood test duck salad; type: in vivo, Heteranthera limosa
Method in brief: as §2

[17] = Postemergence, Rate 250 g/ha, scale 0 to 10
[18] = Postemergence, Rate 500 g/ha, scale of 0 to 10 where 0 is no effect and 10 is complete control
[19] = Preemergence, Rate 62 g/ha, scale of 0 to 10 where 0 is no effect and 10 is complete control
[20] = Preemergence, Rate 125 g/ha, scale of 0 to 10 where 0 is no effect and 10 is complete control
[21] = Preemergence, Rate 250 g/ha, scale 0 to 10, 0 is no effect, 10 is complete control
[22] = Preemergence, Rate 500 g/ha, scale 0 to 10, 0 is no effect, 10 is complete control
[23] = Rate 62 g/ha, Postemergence, scale 0 to 10, 0 no effect, 10 complete control
[24] = Rate 125 g/ha, Postemergence, scale 0 to 10, 0 is no effect, 10 is complete control
[25] = Rate 62 g/ha, flood test species, Pre-emergence, visual evaluation after twelve to sixteen days
[26] = Rate 125 g/ha, under heading Pre-emergence, flood test species, visual evaluation after twelve to sixteen days
[27] = Rate 250 g/ha, Pre-emergence (flood test species), scale 0 to 10, 0 is no effect, 10 is complete control
[28] = Rate 500 g/ha, Pre-emergence, flood test species, scale 0 to 10 (0 no effect, 10 complete control)

For `CC[Si](C)(C)Cn1c(=O)on(C(=O)N(c2ccc(F)cc2)C(C)C)c1=O` [Compound 459], the “Bedstraw plant response rating” value ([1]; Rate 250 g/ha, scale 0 to 10) was 6, the “Bedstraw plant response rating” value ([1]; Rate 500 g/ha, scale of 0 to 10 where 0 is no effect and 10 is complete control) was 8 and the “Plant response rating, Bedstraw” value ([1]; Rate 62 g/ha, scale of 0 to 10 where 0 is no effect and 10 is complete control) was 0. The “Plant response rating, Bedstraw” value ([1]; Rate 125 g/ha, scale of 0 to 10 where 0 is no effect and 10 is complete control) was 0, the “Blackgrass plant response rating” value [2, 17] was 8 and the “Blackgrass plant response rating” value [2, 18] was 8. For the same compound, the “Plant response rating, Blackgrass” value [2, 19] was 0, the “Plant response rating, Blackgrass” value [2, 20] was 0 and the “Blackgrass plant response rating” value [2, 21] was 5. For the same compound, the “Blackgrass plant response rating” value [2, 22] was 6, the “Blackgrass plant response rating” value [2, 23] was 0 and the “Blackgrass plant response rating” value [2, 24] was 1. For the same compound, the “B. signalgrass plant response rating” value ([3]; Postemergence, Rate 250 g/ha, scale 0 to 10, 0 no effect, 10 complete control) was 0, the “B. signalgrass plant response rating” value [3, 18] was 0 and the “Plant response rating, B. signalgrass” value [3, 19] was 0. For the same compound, the “Plant response rating, B. signalgrass” value [3, 20] was 0, the “B. signalgrass plant response rating” value [3, 21] was 1 and the “B. signalgrass plant response rating” value [3, 22] was 1. The “B. signalgrass plant response rating” value [3, 23] was 0, the “B. signalgrass plant response rating” value [3, 24] was 0 and the “Cocklebur plant response rating” value [4, 17] was 0. For the same compound, the “Cocklebur plant response rating” value [4, 18] was 0, the “Plant response rating, Cocklebur” value [4, 19] was 0 and the “Plant response rating, Cocklebur” value [4, 20] was 0. The “Cocklebur plant response rating” value [4, 21] was 0, the “Cocklebur plant response rating” value [4, 22] was 0 and the “Cocklebur plant response rating” value [4, 23] was 0. The “Cocklebur plant response rating” value [4, 24] was 0, the “Corn plant response rating” value [5, 17] was 0 and the “Corn plant response rating” value [5, 18] was 0. The “Plant response rating, Corn” value [5, 19] was 0, the “Plant response rating, Corn” value [5, 20] was 0 and the “Corn plant response rating” value [5, 21] was 0. The “Corn plant response rating” value [5, 22] was 0, the “Corn plant response rating” value [5, 23] was 0 and the “Corn plant response rating” value [5, 24] was 0. For the same compound, the “Crabgrass plant response rating” value [6, 17] was 5, the “Crabgrass plant response rating” value [6, 18] was 8 and the “Plant response rating, Crabgrass” value [6, 19] was 5. For the same compound, the “Plant response rating, Crabgrass” value [6, 20] was 7, the “Crabgrass plant response rating” value [6, 21] was 9 and the “Crabgrass plant response rating” value [6, 22] was 10. For the same compound, the “Crabgrass plant response rating” value [6, 23] was 0, the “Crabgrass plant response rating” value [6, 24] was 1 and the “Plant response rating, Morningglory” value ([7]; Preemergence, Rate 62 g/ha) was 0. For the same compound, the “Plant response rating, Morningglory” value ([7]; Preemergence, Rate 125 g/ha) was 0, the “Morningglory plant response rating” value [7, 21] was 0 and the “Morningglory plant response rating” value [7, 22] was 0. The “Morningglory plant response rating” value [7, 23] was 6, the “Morningglory plant response rating” value [7, 24] was 8 and the “Redroot pigweed plant response rating” value [8, 17] was 0. The “Plant response rating, Redroot pigweed” value ([8]; Preemergence, Rate 62 g/ha) was 0, the “Plant response rating, Redroot pigweed” value ([8]; Preemergence, Rate 125 g/ha) was 0 and the “Redroot pigweed plant response rating” value [8, 21] was 4. The “Redroot pigweed plant response rating” value [8, 22] was 7, the “Redroot pigweed plant response rating” value [8, 23] was 0 and the “Redroot pigweed plant response rating” value [8, 24] was 0. The “Rape plant response rating” value [9, 17] was 0, the “Plant response rating, Rape” value ([9]; Preemergence, Rate 62 g/ha) was 0 and the “Plant response rating, Rape” value ([9]; Preemergence, Rate 125 g/ha) was 0. The “Rape plant response rating” value [9, 21] was 0, the “Rape plant response rating” value [9, 22] was 0 and the “Rape plant response rating” value [9, 23] was 0. The “Rape plant response rating” value [9, 24] was 0, the “Sugarbeets plant response rating” value [10, 17] was 0 and the “Plant response rating, Sugarbeets” value ([10]; Preemergence, Rate 62 g/ha) was 0. For the same compound, the “Plant response rating, Sugarbeets” value ([10]; Preemergence, Rate 125 g/ha) was 0, the “Sugarbeets plant response rating” value [10, 21] was 0 and the “Sugarbeets plant response rating” value [10, 22] was 0. The “Sugarbeets plant response rating” value [10, 23] was 0, the “Sugarbeets plant response rating” value [10, 24] was 0 and the “Velvetleaf plant response rating” value [11, 17] was 0. The “Plant response rating, Velvetleaf” value ([11]; Preemergence, Rate 62 g/ha) was 0, the “Plant response rating, Velvetleaf” value ([11]; Preemergence, Rate 125 g/ha) was 0 and the “Velvetleaf plant response rating” value [11, 21] was 0. For the same compound, the “Velvetleaf plant response rating” value [11, 22] was 0, the “Velvetleaf plant response rating” value [11, 23] was 0 and the “Velvetleaf plant response rating” value [11, 24] was 0. For the same compound, the “Wheat plant response rating” value [12, 17] was 0, the “Plant response rating, Wheat” value ([12]; Preemergence, Rate 62 g/ha) was 0 and the “Plant response rating, Wheat” value ([12]; Preemergence, Rate 125 g/ha) was 0. For the same compound, the “Wheat plant response rating” value [12, 21] was 0, the “Wheat plant response rating” value [12, 22] was 0 and the “Wheat plant response rating” value [12, 23] was 0. For the same compound, the “Wheat plant response rating” value [12, 24] was 0, the “Wild oats plant response rating” value [13, 17] was 0 and the “Plant response rating, Wild oats” value ([13]; Preemergence, Rate 62 g/ha) was 0. For the same compound, the “Plant response rating, Wild oats” value ([13]; Preemergence, Rate 125 g/ha) was 0, the “Wild oats plant response rating” value [13, 21] was 0 and the “Wild oats plant response rating” value [13, 22] was 0. For the same compound, the “Wild oats plant response rating” value [13, 23] was 0, the “Wild oats plant response rating” value [13, 24] was 0 and the “Nutsedge plant response rating” value [14, 17] was 0. The “Plant response rating, Nutsedge” value ([14]; Preemergence, Rate 62 g/ha) was 0, the “Plant response rating, Nutsedge” value ([14]; Preemergence, Rate 125 g/ha) was 0 and the “Nutsedge plant response rating” value [14, 21] was 0. For the same compound, the “Nutsedge plant response rating” value [14, 22] was 0, the “Nutsedge plant response rating” value [14, 23] was 0 and the “Nutsedge plant response rating” value [14, 24] was 0. For the same compound, the “Plant response rating, S. Flatsedge (0 to 10 scale, 0 is no effect, 10 is complete control)” value [15, 25] was 0, the “S. Flatsedge plant response rating (0 to 10 scale, 0 is no effect, 10 is complete control)” value [15, 26] was 0 and the “S. Flatsedge plant response rating” value [15, 27] was 0. For the same compound, the “S. Flatsedge plant response rating” value [15, 28] was 0, the “Plant response rating, Ducksalad (0 to 10 scale, 0 is no effect, 10 is complete control)” value [16, 25] was 0 and the “Ducksalad plant response rating (0 to 10 scale, 0 is no effect, 10 is complete control)” value [16, 26] was 0. The “Ducksalad plant response rating” value [16, 27] was 0 and the “Ducksalad plant response rating” value [16, 28] was 0.
